Counter-ions that a name gives are not always drawn. Like-named read-outs stand apart in the source and are kept apart here.

The Ki is a measure of affinity in units of concentration, obtained from inhibition or displacement.

Data set [1] has as its target T1, recombinant rat 5-HT7 receptor (Rattus norvegicus, UniProt P32305).
T1 construct: expressed in transfected cells
Briefly: Determination of Kb at 5-HT7 receptor, pCRE-Luc reporter gene assay in CHO cells. In kind it is cell-based. The following applies: for antagonistic activity at rat recombinant 5-HT7 receptor: pCRE-Luc reporter gene assay. As for the experimental part:
A stable CHO cell line expressing recombinant rat 5-HT7 receptor and pCRE-Luc reporter system was used for cell-based assay. The assay offers a non-radioactive based approach to determine binding of a compound to GPCRs. In this specific assay, the level of intracellular cAMP which is modulated by activation or inhibition of the receptor is measured. The recombinant cells harbor luciferase reporter gene under the control of cAMP response element.
The above cells were grown in 96 well clear bottom white plates in Hams F12 medium containing 10% fetal bovine serum (FBS). Prior to the addition of compounds or standard agonist, cells were serum starved overnight. Increasing concentrations of test compound were added along with 1 μM of serotonin in Opti-MEM medium to the cells. The incubation was continued at 37° C. in CO2 incubator for 4 hours. Medium was removed and cells were washed with phosphate buffered saline. The cells were lysed and luciferase activity was measured in a Luminometer. Luminescence units were plotted against the compound concentrations using GraphPad Prism software. EC50 values of the compounds were defined as the concentration required in reducing the luciferase activity by 50%. The Kb values were calculated by feeding the concentration of agonist used in the assay and its EC50 value in the same software.
(In general: In a reporter assay the amount or activity of a reporter protein is the signal.)

The next data set deals with Male Sprague Dawley rats. In words: Amphetamine-induced hyperlocomotion. The settings on record: 3 mg/kg, p.o., dosed 30 min prior to trial. In kind it is in vivo, rat. As for the experimental part: Male Sprague Dawley rats of 230-280 g body weight were used. Rats were weighed and randomized according to their body weights. Following day, the rats were brought to the laboratory 1 h prior to test. In the morning session, rats were habituated to open field arena for 15 min. Test compound/vehicle and amphetamine/vehicle were administered 30 min prior to the trial. After the post-dose interval, rats were placed in the open field and locomotion was recorded for a period of 15 min. Amphetamine-induced hyperlocomotion models positive symptoms of schizophrenia.

In data set [2] the target is cloned human SERT receptor (Homo sapiens, UniProt P31645). Briefly: Determination of Ki at SERT receptor (SPA binding, [3H]-Citalopram). The settings on record: HEK293 recombinant cells, [3H]-Citalopram 2 nM. The procedure, abridged: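 HEK293-expressed human SERT; [3H]-citalopram at 2 nM final, nonspecific binding with 0.1 mM venlafaxine. Incubated 3 h at r.t. in 50 mM Tris-HCl pH 7.4, 150 mM NaCl, 5 mM KCl with SPA beads. Bead-proximal radioactivity compared with control values.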
Chain of cloned human SERT receptor (P31645 whole entry): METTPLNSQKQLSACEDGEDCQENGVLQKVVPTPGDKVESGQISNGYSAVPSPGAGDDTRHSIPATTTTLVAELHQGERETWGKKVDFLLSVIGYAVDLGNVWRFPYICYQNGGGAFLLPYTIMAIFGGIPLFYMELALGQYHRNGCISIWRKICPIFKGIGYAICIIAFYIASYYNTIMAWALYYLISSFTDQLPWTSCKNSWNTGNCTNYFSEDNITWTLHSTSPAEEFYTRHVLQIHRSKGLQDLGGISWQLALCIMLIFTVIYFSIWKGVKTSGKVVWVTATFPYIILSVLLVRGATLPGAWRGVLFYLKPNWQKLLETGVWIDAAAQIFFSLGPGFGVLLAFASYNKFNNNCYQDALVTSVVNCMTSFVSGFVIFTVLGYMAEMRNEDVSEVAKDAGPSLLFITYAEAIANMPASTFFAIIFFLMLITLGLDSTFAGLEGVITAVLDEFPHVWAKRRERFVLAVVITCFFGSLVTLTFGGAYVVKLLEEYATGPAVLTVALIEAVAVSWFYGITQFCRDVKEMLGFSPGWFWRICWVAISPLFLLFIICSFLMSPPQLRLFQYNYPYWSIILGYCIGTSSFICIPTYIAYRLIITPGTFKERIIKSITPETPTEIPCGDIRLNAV

The target in data set [3] is T2, recombinant human D2S receptor (Homo sapiens, UniProt P14416).
T2 construct: expressed in transfected cells
T2 sequence (P14416 1-414 isoform P14416-2): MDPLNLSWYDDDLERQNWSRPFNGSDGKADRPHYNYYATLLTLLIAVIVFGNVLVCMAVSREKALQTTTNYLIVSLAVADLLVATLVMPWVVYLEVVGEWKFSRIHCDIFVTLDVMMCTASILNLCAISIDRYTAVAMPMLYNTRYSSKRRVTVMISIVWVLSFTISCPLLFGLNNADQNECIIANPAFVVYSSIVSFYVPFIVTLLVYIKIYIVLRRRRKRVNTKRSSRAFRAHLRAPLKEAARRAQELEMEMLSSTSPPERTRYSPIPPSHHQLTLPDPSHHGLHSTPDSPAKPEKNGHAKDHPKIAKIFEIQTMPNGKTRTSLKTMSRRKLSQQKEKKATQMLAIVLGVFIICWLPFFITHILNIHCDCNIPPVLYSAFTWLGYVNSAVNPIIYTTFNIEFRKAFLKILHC
In words: Determination of Kb at D2S receptor, pCRE-Luc reporter gene assay in CHO cells. The data set is classed as cell-based. The following applies: for agonist activity at human recombinant D2S receptor / antagonistic activity at human recombinant D2S receptor: pCRE-Luc reporter gene assay; for Kb: with 0.3 μM Dopamine and 1 μM forskolin, luciferase readout. The method, then: A stable CHO cell line expressing recombinant human […] receptor and pCRE-Luc reporter system was used for cell-based assay. The assay offers a non-radioactive based approach to determine binding of a compound to GPCRs. In this specific assay, the level of intracellular cAMP which is modulated by activation or inhibition of the receptor is measured. The recombinant cells harbor luciferase reporter gene under the control of cAMP response element.
The above cells were grown in 96 well clear bottom white plates in Hams F12 medium containing 10% fetal bovine serum (FBS). Prior to the addition of compounds or standard agonist, cells were serum starved overnight. Increasing concentrations of test compound were added along with 0.3 μM of Dopamine and 1 μM of forskolin in Opti-MEM medium to the cells. The incubation was continued at 37° C. in CO2 incubator for 4 hours. Medium was removed and cells were washed with phosphate buffered saline. The cells were lysed and luciferase activity was measured in a Luminometer. Luminescence units were plotted against the compound concentrations using GraphPad Prism software. EC50 values of the compounds were defined as the concentration required in reducing the luciferase activity by 50%. The Kb values were calculated by feeding the concentration of agonist used in the assay and its EC50 value in the same software.
References: European Journal of Pharmacology, 2005, 515, 10-19.

The test system of the next data set is Rats. Briefly: Tardive dyskinesia test (vacuous chewing movements and tongue protrusions). The data set is classed as in vivo, rat. The following applies: 10 mg/kg, p.o. (5 mg twice a day) for 4 weeks. The method, then:
Rats weighing 200-230 g were acclimatized to the plexiglass observation cages (30×20×30 cm) equipped with mirrors for 5 min. After acclimatization, basal vacuous chewing movements (VCMs) and tongue protrusions (TPs) of the rats were quantified manually for 5 min. Rats were randomized based on the basal readings. Rats received a single dose of sesame oil (vehicle treatment) or haloperidol decanoate (38 mg/kg, i.m. positive control). Example-2, 10 mg/kg, p.o. ([…]) was administered for 4 weeks. VCMs and TPs were scored on weekly basis for 4 weeks. Tardive dyskinesia is a side effect of antipsychotic medications.

Another data set deals with Male Wistar rats. Briefly: DOI-induced head twitch response. The data set is classed as in vivo, rat. The settings on record: 3.0 mg/kg, s.c., 30 min prior to DOI. As for the experimental part:
On day 1 male Wistar rats (220-250 g) were habituated in a circular cylinder for a period of 15 min. On day 2, the rats were brought to the experimental room 30 min prior to the experiment. All the animals were administered with respective formulations i.e. vehicle or test compound 30 min prior to DOI or vehicle administration. Immediately following DOI or vehicle administration, the animals were kept in the circular cylinder for a period of 10 min to score the head twitches. Compounds which act as 5-HT2A antagonists attenuate DOI-induced head twitches.

The mark [4] stands for this setting: rat receptor, with 1 μM serotonin, luciferase readout, read-out: Kb at 5-HT7 receptor.

T1 sequence (P32305 whole entry): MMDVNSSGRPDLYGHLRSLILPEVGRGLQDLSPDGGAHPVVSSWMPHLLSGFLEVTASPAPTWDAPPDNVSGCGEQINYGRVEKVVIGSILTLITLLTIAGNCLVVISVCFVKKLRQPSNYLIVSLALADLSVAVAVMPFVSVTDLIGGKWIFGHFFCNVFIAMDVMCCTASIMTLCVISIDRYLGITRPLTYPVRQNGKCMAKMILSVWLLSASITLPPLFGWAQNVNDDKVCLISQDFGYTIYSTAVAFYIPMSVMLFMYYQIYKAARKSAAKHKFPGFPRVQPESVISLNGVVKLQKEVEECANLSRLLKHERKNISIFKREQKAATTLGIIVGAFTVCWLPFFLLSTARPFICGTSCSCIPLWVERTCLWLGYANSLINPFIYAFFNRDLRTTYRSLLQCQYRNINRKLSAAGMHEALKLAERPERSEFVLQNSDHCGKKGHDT

Consider `O=C1C[C@@H]2CCCN2C(=O)N1CCCCN1CCN(c2nsc3ccccc23)CC1` [Example 2, 2-[4-(4-Benzo[d]isothiazol-3-yl-piperazin-1-yl)-butyl]-tetrahydro-pyrrolo[1,2-c]pyrimidine-1,3-dione oxalate], for which the “antagonistic activity at rat recombinant 5-HT7 receptor” value in data set [1] is on record as “antagonistic activity”. Besides, in data set [1] (setting [4]), the Kb was determined as 0.6 nM. The “Inference, amphetamine antagonism (hyperlocomotion)” value with Male Sprague Dawley rats was “Active”. Also, in data set [2] (read-out: Ki hSERT), the Ki turned out to be 1060 nM. In data set [3], the “agonist activity at human recombinant D2S receptor” value is on record as “no detectable agonist activity”, the “antagonistic activity at human recombinant D2S receptor” value is “antagonistic activity” and the Kb was found to be 33 nM. Besides, the “Inference, tardive dyskinesia like symptoms (VCMs and TPs)” value with Rats is recorded as “Example-2 did not show tardive”. The “Inference, DOI-induced head twitch response” value in the data set on Male Wistar rats is given as “Active”.
Take `O=C1C[C@@H]2CCCN2C(=O)N1CCCCN1CCN(c2cccc3sccc23)CC1` [Example 4, 2-[4-(4-Benzo[b]thiophen-4-yl-piperazin-1-yl)-butyl]-tetrahydro-pyrrolo[1,2-c]pyrimidine-1,3-dione oxalate]: the inhibitory constant (Ki) in data set [2] (read-out: Ki hSERT) came out at 228 nM. Besides, in data set [3], the “agonist activity at human recombinant D2S receptor” value is given as “no detectable agonist activity”, the “antagonistic activity at human recombinant D2S receptor” value is “antagonistic activity” and the Kb worked out at 54.4 nM.
For the compound `O=C1C[C@@H]2C[C@H](F)CN2C(=O)N1CCCCN1CCN(c2nsc3ccccc23)CC1` [Example 9, 2-[4-(4-Benzo[d]isothiazol-3-yl-piperazin-1-yl)-butyl]-6-fluoro-tetrahydro-pyrrolo[1,2-c]pyrimidine-1,3-dione oxalate], the “antagonistic activity at rat recombinant 5-HT7 receptor” value in data set [1] is listed as “antagonistic activity”. For the same compound, the Kb in data set [1] (setting [4]) was determined as 0.7 nM. Further, the Ki in data set [2] (read-out: Ki hSERT) was 833 nM.
On to `O=C1C[C@@H]2C[C@H]3C[C@H]3N2C(=O)N1CCCCN1CCN(c2nsc3ccccc23)CC1` [Example 11, 3-[4-(4-Benzo[d]isothiazol-3-yl-piperazin-1-yl)-butyl]-hexahydro-1b,3-diaza-cyclopropa[a]indene-2,4-dione oxalate], for which, in data set [1], the Kb stood at 0.17 nM and the “antagonistic activity at rat recombinant 5-HT7 receptor” value is reported as “antagonistic activity”. Also, the Ki in data set [2] (Ki hSERT) is 1280 nM.
